# Assay results reported in patent US10272092B2, “Composition for preventing or treating mucositis comprising NecroX as effective ingredient” (THE CATHOLIC UNIVERSITY OF KOREA INDUSTRY-ACADEMIC …, priority 2014, dated 2019).
# What was measured:
# normal cells = assay: MTT assay of irradiated normal cells; format: cell-based; conditions: 800 cGy radiation; NecroX-7 according to doses; 3 days incubation; FIG. 5
# Protocol: (§1) Mucositis is a general side effect caused by radiation or chemotherapy for tumor treatment. Thus, to confirm the efficacy of a mucositis therapeutic agent, an effect thereof on tumor proliferation should be evaluated. Normal cells and tumor cells were irradiated with 800 cGy radiation, treated with NecroX-7 according to doses, and inoculated on a 96-well plate, incubated at 37[…] and 5% CO2 for 3 days, and then cell proliferation was confirmed by MTT assay. After incubation for 3 days, an MTT solution was added thereto and a reaction was allowed to occur therein for 3 hours, and the absorbance thereof was measured at […].
# [1] = tested on: mitochondrial ROS in intestinal epithelial cells (IEC-6); assay: Mitochondrial ROS by CM-H2ROS staining after radiation; format: cell-based; conditions: IEC-6 cells after radiation; FIG. 6
# [2] = tested on: necrocytosis caused by oxidative stress and acetaminophen; conditions: reported, Park et al. 2013; cited from earlier work
# tumor cells = assay: MTT assay of irradiated tumor cells; format: cell-based; conditions: 800 cGy radiation; NecroX-7 according to doses; 3 days incubation; FIG. 5
# Protocol: as §1
# [3] = tested on: intestinal tissue of radiation-induced mucositis mice; assay: H&E staining of intestinal tissue, radiation-induced mucositis; format: in vivo; conditions: 30 mg/kg NecroX-7, FIG. 3
# Human tumor cells = assay: MTS viability of human tumor cells, NecroX-7 with or without 5-FU; format: cell-based; conditions: 5, 10, 20, 40 μM for 30 minutes; media without 5-FU; after 3 days; FIG. 10
# Protocol: Human tumor cells were treated with NecroX-7 at each concentration ((5 μM, 10 μM, 20 μM, and 40 μM) for 30 minutes, the media were replaced by media with or without 5-FU, which is a chemotherapeutic agent, the cells were loaded on a 96-well plate and, after 3 days, the viability of the cells was measured by MTS assay.
# [4] = tested on: liver injury due to ischemic reperfusion; conditions: reported, Park et al. 2013; cited from earlier work
# [5] = tested on: anticancer drug-induced mucositis mouse model; assay: Anticancer drug (5-FU)-induced mucositis mouse model: viability, body weight; format: in vivo, C57BL/6(H-2k) mice; conditions: 50 mg/kg 5-FU i.p. five times; NecroX-7 intravenously five times at 0.3, 3 or 30 mg/kg; compared to group not treated; FIG. 7
# Protocol: 7 week- to 9 week-old C57BL/6(H-2k) mice were used as an animal model, and injected intraperitoneally with 50 mg/kg of 5-fluorouracil (5-FU) every day for 5 days to induce oral and intestinal mucosal damage, thereby completing the establishment of a mucositis model. Effects of NecroX-7 administered on such a mucositis model were analyzed by comparison in terms of viability, body weight, and intestinal functions.
# To induce oral and intestinal mucositis, the C57BL/6(H-2k) mice were intraperitoneally injected with 50 mg/kg of 5-FU five times. NecroX-7 was administered intravenously five times at a dose of 0.3 mg/kg or 3 mg/kg or 30 mg/kg and the results were compared.
# [6] = tested on: intestinal epithelial cells (IEC-6); assay: MTS assay of IEC-6 cell proliferation in normal environments; format: cell-based; conditions: no radiation, 5, 10, 20, 40 μM for 30 minutes, measured after 2 days
# Protocol: To examine an effect of NecroX-7 on IEC-6 cell proliferation ability in normal environments, IEC-6 cells were treated with NecroX-7 at each concentration (5 μM, 10 μM, 20 μM, and 40 μM) for 30 minutes, the media were replaced and, after 2 days, the viability of the IEC-6 cells was measured by MTS (3-(4,5-dimethylthiazol-2-yl)-5-(3-carboxymethoxyphenyl)-2-(4-sulfophenyl)-2H-tetrazolium) assay.
# [7] = tested on: liver injury caused by carbon tetrachloride; conditions: mouse model; reported, Park et al. 2013; cited from earlier work
# [8] = tested on: intestinal tissue of radiation-induced mucositis mice; assay: Cell proliferation (bromodeoxyuridine) by IHC staining of intestinal tissue; format: in vivo; conditions: 30 mg/kg NecroX-7, unlike a control, FIG. 4
# Protocol: Cell proliferation (bromodeoxyuridine) was confirmed by IHC staining. Before obtaining mouse tissues, mice were each injected with […] of a BrDU labeling reagent (5-bromo-2′-deoxyuridine and 5-fluoro-2′-deoxyuridine) and intestinal tissue was extracted within 2 hours to prepare paraffin blocks. 4 μm continuous sections were obtained from paraffin-embedded tissue, treated with xylene three times to remove paraffin, and then rinsed stepwise in 95%, 90% and 70% ethanol. After removing endogenous peroxidase from 0.3% hydrogen peroxide, the sections were treated with goat serum for 30 minutes. A primary antibody was diluted in PBS containing 3% BSA according to the manufacturer's instructions and then maintained for 1 hour to induce a reaction therebetween. […] The cells were maintained in 3 μg/ml HRP streptoavidin for 30 minutes, developed color with DAB and hydrogen peroxide, and then were subjected to contrast staining with Mayer's hematoxylin or 1% methyl green.
# [9] = tested on: intestinal epithelial cells (IEC-6); assay: MTS assay of IEC-6 cells after irradiation; format: cell-based; conditions: 20 μM and 40 μM NecroX-7 for 30 minutes; 2 days after radiation irradiation; FIG. 6
# Protocol: To investigate an effect of NecroX-7 on cell proliferation ability after irradiation, the IEC-6 cells were treated with NecroX-7, for 30 minutes, according to concentration, the media were replaced, and then MTS assay was performed thereon 2 days after radiation irradiation.
# [10] = tested on: radiation-induced mucositis mouse model; assay: Radiation-induced mucositis mouse model: viability, body weight, intestinal functions; format: in vivo, C57BL/6(H-2k) mice; conditions: 1100 cGy radiation, compared to group not treated
# Protocol: NecroX-7 ((tetrahydropyran-4-yl)-[2-phenyl-5-(1,1-dioxo-thiomorpholine-4-yl)methyl-1H-indole-7-yl]amine) was obtained from LG Life Sciences, Ltd. 7 week- to 9 week-old C57BL/6(H-2k) mice were used as an animal model, and irradiated with 1,100 cGy whole-body radiation to induce damage to the intestinal mucosa, thereby completing the establishment of a mucositis model. Effects of NecroX-7 administered on such a mucositis model were analyzed by comparison in terms of viability, body weight, and intestinal functions.
# (A) C57BL/6(H-2k) mice were irradiated with strong radiation 1100 cGy (radiation source: X-ray Mevatron MXE-2) at a dose rate of 1 Gy/min to induce mucositis. NecroX-7 was administered five times at a dose of 0.3 mg/kg or 3 mg/kg or 30 mg/kg and the results were compared.
# Induction of intestinal mucositis by radiation causes side effects such as intestinal hemorrhaging and fecal incontinence. Thus, in the present experiment, a mucositis model was established by irradiating high-dose radiation of 1100 cGy, and NecroX-7 was treated total five times and the NecroX-7 treated group was compared to a group not treated with NecroX-7. A protective effect of NecroX-7 with respect to radiation-induced intestinal mucositis was examined.
# [11] = tested on: tongue and intestinal tissues of anticancer drug-induced mucositis mice; assay: H&E staining of tongue and intestinal tissues, 5-FU-induced mucositis; format: in vivo
# [12] = NecroX-7 five times at 0.3, 3 or 30 mg/kg, FIG. 1
compound,measurement,setting,value
"O=S1(=O)CCN(Cc2cc(NC3CCOCC3)c3[nH]c(-c4ccccc4)cc3c2)CC1 [NecroX-7, (tetrahydropyran-4-yl)-[2-phenyl-5-(1,1-dioxo-thiomorpholine-4-yl)methyl-1H-indole-7-yl]amine]",radiation-induced cell death in normal cells (MTT),normal cells,radiation-induced cell death was prevented
same,mitochondrial ROS (CM-H2ROS staining),[1],significantly suppressed mitochondrial ROS increased by radiation
same,protection against necrocytosis caused by oxidative stress and acetaminophen,[2],protective effect against necrocytosis caused by oxidative stress and acetaminophen
same,proliferation of tumor cells (MTT),tumor cells,suppressed or decreased in most cancer cell lines
same,H&E histology of intestinal tissue (villi and mucosal destruction),[3],aspects similar to normal intestinal tissue
same,"viability of human tumor cells (MTS), NecroX-7 alone",Human tumor cells,anticancer effect in a concentration-dependent manner
same,inhibition of liver injury due to ischemic reperfusion,[4],effectively inhibits liver injury due to ischemic reperfusion
same,body weight loss,[5],suppressed body weight loss
same,viability,[5],increased viability
same,effect on IEC-6 cell proliferation (MTS viability),[6],nearly no effect on cell proliferation
same,prevention of liver injury caused by carbon tetrachloride,[7],effect of preventing liver injury caused by carbon tetrachloride in a mouse model
same,cell proliferation (bromodeoxyuridine) in intestinal tissue,[8],vigorous cell proliferation was observed
same,number of live IEC-6 cells (MTS),[9],significantly increased
same,body weight loss,[10]; [12],inhibited body weight loss
same,viability,[10]; [12],increased viability
same,"intestinal function protection (length of the intestines, stool production)","[10]; NecroX-7 total five times, FIG. 2","protected, similar to the intestines of a normal group"
same,"H&E histology of tongue and oral mucosa (epidermal atrophy, infiltration of inflammatory and necrotic cells)","[11]; 30 mg/kg of NecroX-7, FIG. 8",aspects similar to normal tissues
same,H&E histology of intestinal tissue (villi and mucosal destruction),"[11]; NecroX-7-treated group, FIG. 9",aspects similar to normal tongue and intestinal tissues
